Four molecules from US12410163B2, “Compounds as GLP-IR agonists” (Terns Pharmaceuticals, Inc., priority 2022, dated 2025) can be followed below.

Bounds are passed on as bounds.

A short description of data set [1]: Metabolic stability in hepatocytes. It counts as in vitro ADME. The conditions noted are these: cryopreserved human hepatocytes (suspension), 1×10^6 cells/mL, intrinsic clearance, read-out: hHep CLint. The protocol: (§1) Test compounds are incubated in human hepatocytes and stability is assessed from the substrate […] approach. Test compounds are dissolved in dimethyl sulfoxide (DMSO) to create a 10 mM Stock, and then further diluted to create a 1000× Working Stock of 1 mM with DMSO in 96-well plates for test compounds and the positive control (midazolam). Vials containing cryopreserved hepatocytes are removed from the liquid nitrogen tank and immediately immersed in a 37° C. water bath. The vials are shaken gently until the contents had thawed and were then immediately emptied into 48 mL of pre-warmed HT Medium in a 50 mL conical tube. Cells remaining in the vial are resuspended with 1.0 mL of pre-warmed HT Medium and added to the conical tube. The tube is capped and then gently inverted several times to resuspend the hepatocytes. The cell suspension is centrifuged at 50×g at room temperature for 5 minutes and the supernatant discarded. The cell pellet is loosened by gently swirling the centrifuge tube and is re-suspended in 4 mL of warm Dulbecco's Modified Eagle medium (DMEM). Cell density is determined by a cell counter by Nexcelom, and DMEM medium is added to obtain a target density of 1×10^6 cells/mL. The assay is carried out in 96-well microtiter plates. Test Compounds are incubated at 1 μM with 1×10^6 cells/mL hepatocytes in DMEM for 0, 30, 60, 120 and 240 minutes. The incubation is carried out with gentle shaking at 37° C. under a humid atmosphere of 95% air/5% CO2. The volume of the incubation mixture is 37 μL with a final 0.1% DMSO. At each of the time points, the incubation is stopped by adding 150 μL quenching solution (100% acetonitrile, 0.1% formic acid containing bucetin as an internal standard for positive ESI mode). Subsequently, the mixtures are vortexed for 20 min and centrifuged at 4,000 RPM at 10° C. The supernatant (80 μL) is transferred to a clean 96-well plate and analyzed by LC-MS/MS. Midazolam at 1 μM with a final 0.1% DMSO is included as a positive control to verify assay performance. The percent parent remaining, intrinsic and predicted hepatic clearance and t1/2 are calculated. All samples are analyzed by LC-MS/MS using an AB Sciex API 4000 instrument, coupled to a Shimadzu LC-20AD LC Pump system. Separation is achieved using a Waters Atlantis T3 dC18 reverse phase HPLC column (20 mm×2.1 mm) at a flow rate of 0.5 mL/min. The mobile phase consisted of 0.1% formic acid in water (solvent A) and 0.1% formic acid in 100% acetonitrile (solvent B). Elution conditions are detailed below.
(§2) The ion optics of each test compound are optimized for their declustering potential (DP), […] (CE), collision-cell exit potential (CXP) and used in a selected ion monitoring experiment in the positive ion mode. The peak area ratio of each test compound to internal standard is then evaluated for stability. The extent of metabolism is calculated based on the disappearance of the test compound, compared to its initial concentration. The initial rates of clearance of the test compound are calculated using the linear regression plot of semi-log % remaining of the compound versus time. The elimination rate constant (k) of the linear regression plot is then used to determine t1/2 and the intrinsic clearance (CLint) using the following formula, where Chepatocyte (million cells/mL) is the cell density of the incubation: k=−slope t1/2=0.693/k CLint=k/Chepatocyte
(§3) Test compounds were incubated in human hepatocytes and stability was assessed from the substrate […] approach. Test compounds were dissolved in dimethyl sulfoxide (DMSO) to create a 10 mM Stock, and then further diluted to create a 1000× Working Stock of 1 mM with DMSO in 96-well plates for test compounds and the positive control (midazolam). Vials containing cryopreserved hepatocytes were removed from the liquid nitrogen tank and immediately immersed in a 37° C. water bath. […]

The subject of the next data set is human hepatocytes. In words: Metabolic stability in hepatocytes. It counts as in vitro ADME. The note with it: 1 μM, 1×10^6 cells/mL, 0-240 min. The protocol:
as §1, §2, §3

Another data set addresses T1, human GLP-1R receptor (Homo sapiens, UniProt P43220).
T1 construct: expressed in transfected cells
In words: GLP-1R low expression cell assay (cAMP TR-FRET, CHO-K1_hGLP-1Rlow_clone10). It counts as cell-based. The conditions noted are these: CHO-K1_hGLP-1Rlow_clone10 cells, percent activation relative to control GLP-1 peptide. As to the method:
Stable cell lines expressing high and low GLP-1R surface expression are generated in CHO-K1 cells transfected (Fugene 6) with a puromycin selectable DNA plasmid encoding human GLP-1R receptor (accession number: NM_002062.5) under control of an EF1A promoter. Transfected cells are seeded into 24-well plates (9,000 cells/well) containing complete medium and incubated in a humidified incubator at 37° C. with 5% carbon dioxide. After overnight incubation, medium is replaced with complete medium supplemented with puromycin (6 μg/mL) and refreshed every 2-3 days to select for stably transfected cells. Individual pools of selected cells are expanded prior to analysis for responsiveness to GLP-1 control peptide using a TR-FRET assay to detect cAMP (LANCE Ultra cAMP Assay, Perkin Elmer). Briefly, cells are collected in Versene solution, plated in 384-well plates (1,000 cells/well) and combined with serially diluted GLP-1R control peptide (10 nL) using an acoustic dispenser (ECHO). Plates are incubated for 30 minutes at 25° C. prior to the addition of EU-cAMP tracer (5 μL) and Ulight-anti-cAMP (5 μL) reagents to each well, followed by 15 minutes incubation at 25° C. TR-FRET signal is detected using an EnVision Multimode Plate Reader (excitation=320 nm; emission=615 and 655 nm). Dose-response curves are used to generate EC50 values as a measure of responsiveness to the GLP-1R control peptide. Selected cell lines are monitored for responsiveness over multiple passages to ensure stability. […] Briefly, GLP-1R expression is analyzed by flow cytometry using a fluorescein-labeled Exendin-4 peptide fluorescent probe (FLEX). Cells are harvested in Versene solution and washed 3-times with PBS+0.5% BSA before incubation with FLEX reagent (10 μM) for 2 hours at room temperature. After incubation, cells are washed 3-times in PBS+0.5% BSA before final resuspension in PBS prior to analysis by flow cytometry to measure FLEX mean fluorescence intensity (MFI) as a measure of GLP-1R expression on the cell surface.
For compound testing in the CHO-K1_hGLP-1Rlow_clone10 cell lines, cells are seeded in 384-well plates (1,000 cells/well). Test compounds are serially diluted in DMSO (10-point, 3-fold dilution), added to wells using an ECHO dispenser (10 nL/well) and plates are centrifuged for 1 min and agitated for 2 min at room temperature prior to 30-minute incubation at 25° C. After incubation, Eu-cAMP (5 μL) and Ulight-anti-cAMP (5 μL) reagents are added to each well, followed by centrifugation for 1 minute, agitation for 2 minutes at room temperature, and final incubation of the plates at 25° C. for 15 minutes. Plates are read using an EnVision microplate reader (excitation=320 nm; emission=615 and 655 nm). Dose-response curves are generated from duplicate wells based on percent activation calculated relative to a control GLP-1 peptide agonist that was run in parallel. EC50 values are determined by fitting percent activation as a function of compound concentration using the Hill equation (XLfit).
Stable cell lines expressing high and low GLP-1R surface expression were generated in CHO-K1 cells transfected (Fugene 6) with a puromycin selectable DNA plasmid encoding human GLP-1R receptor (accession number: NM_002062.5) under control of an EF1A promoter. Transfected cells were seeded into 24-well plates (9,000 cells/well) containing complete medium and incubated in a humidified incubator at 37° C. with 5% carbon dioxide. After overnight incubation, medium was replaced with complete medium supplemented with puromycin (6 μg/mL) and refreshed every 2-3 days to select for stably transfected cells. Individual pools of selected cells were expanded prior to analysis for responsiveness to GLP-1 control peptide using a TR-FRET assay to detect cAMP (LANCE Ultra cAMP Assay, Perkin Elmer).
Background: In TR-FRET formats the signal depends on donor and acceptor labels being close together.

Data set [2] in a line: Passive permeability and efflux ratio (Caco-2). It counts as in vitro ADME. The conditions noted are these: human. As to the method:
Caco-2 cells (clone C2BBe1) are obtained, e.g., from American Type Culture Collection (Manassas, VA). Cell monolayers are grown to confluence on collagen-coated, microporous membranes in 12-well assay plates. The permeability assay buffer is Hanks' balanced salt solution containing 10 mM HEPES and 15 mM glucose at a pH of 7.4. The buffer in the receiver chamber also contains 1% bovine serum albumin. The dosing solution concentration is 5 μM of test article in the assay buffer. Cell monolayers are dosed on the apical side (A-to-B) or basolateral side (B-to-A) and incubated at 37° C. with 5% CO2 in a humidified incubator. Samples are taken from the donor and receiver chambers at 120 minutes. Each determination is performed in duplicate. The flux of lucifer yellow is also measured post-experimentally for each monolayer to ensure no damage is inflicted to the cell monolayers during the flux period. All samples are assayed by LC-MS/MS using electrospray ionization. The apparent permeability (Papp) and percent recovery were calculated as follows: Papp=(dCr/dt)×Vr/(A×CA) (1) Percent Recovery=100×((Vr×Cr^final)+(Vd×Cd^final))/(Vd×CN) (2), where, dCr/dt is the slope of the cumulative receiver concentration versus time in μM s^−1; Vr is the volume of the receiver compartment in cm^3; Vd is the volume of the donor compartment in cm^3; A is the area of the insert (1.13 cm^2 for 12-well); CA is the average of the nominal dosing concentration and the measured 120-minute donor concentration in μM; CN is the nominal concentration of the dosing solution in μM; Cr^final is the cumulative receiver concentration in μM at the end of the incubation period; Cd^final is the concentration of the donor in μM at the end of the incubation period. Efflux ratio (ER) is defined as Papp (B-to-A)/Papp (A-to-B). Rat Pharmacokinetics
Caco-2 cells (clone C2BBe1) were obtained from American Type Culture Collection (Manassas, VA). Cell monolayers were grown to confluence on collagen-coated, microporous membranes in 12-well assay plates. Details of the plates and their certification are shown below. The permeability assay buffer was Hanks' balanced salt solution containing 10 mM HEPES and 15 mM glucose at a pH of 7.4. The buffer in the receiver chamber also contained 1% bovine serum albumin. The dosing solution concentration was 5 μM of test article in the assay buffer. Cell monolayers were dosed on the apical side (A-to-B) or basolateral side (B-to-A) and incubated at 37° C. with 5% CO2 in a humidified incubator. Samples were taken from the donor and receiver chambers at 120 minutes. Each determination was performed in duplicate. The flux of lucifer yellow was also measured post-experimentally for each monolayer to ensure no damage was inflicted to the cell monolayers during the flux period. All samples were assayed by LC-MS/MS using electrospray ionization. The apparent permeability (Papp) and percent recovery were calculated as follows: Papp=(dCr/dt)×Vr/(A×CA) (1) Percent Recovery=100×((Vr×Cr^final)+(Vd×Cd^final))/(Vd×CN) (2), where, dCr/dt is the slope of the cumulative receiver concentration versus time in μM s^−1; Vr is the volume of the receiver compartment in cm^3; Vd is the volume of the donor compartment in cm^3; A is the area of the insert (1.13 cm^2 for 12-well); CA is the average of the nominal dosing concentration and the measured 120-minute donor concentration in μM; CN is the nominal concentration of the dosing solution in μM; Cr^final is the cumulative receiver concentration in μM at the end of the incubation period; Cd^final is the concentration of the donor in μM at the end of the incubation period. Efflux ratio (ER) is defined as Papp (B-to-A)/Papp (A-to-B).
Background: Caco-2 cells form a polarised layer with tight junctions and transporters.

T1 sequence (P43220 24-463): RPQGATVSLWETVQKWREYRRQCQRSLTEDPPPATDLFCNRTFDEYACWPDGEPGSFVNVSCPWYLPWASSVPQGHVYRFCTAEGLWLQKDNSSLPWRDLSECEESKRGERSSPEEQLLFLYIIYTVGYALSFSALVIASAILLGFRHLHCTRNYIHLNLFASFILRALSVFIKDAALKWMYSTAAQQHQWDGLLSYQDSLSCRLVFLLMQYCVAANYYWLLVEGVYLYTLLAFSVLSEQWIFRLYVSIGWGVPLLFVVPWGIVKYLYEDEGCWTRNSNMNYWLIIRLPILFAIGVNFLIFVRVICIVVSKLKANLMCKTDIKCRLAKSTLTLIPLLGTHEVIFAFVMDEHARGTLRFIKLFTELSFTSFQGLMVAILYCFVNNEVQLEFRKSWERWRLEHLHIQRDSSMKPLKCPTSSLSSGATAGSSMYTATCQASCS

Usually EC50 stands for the concentration at which the effect is half-maximal. A high value points to weaker potency. Regarding `N#Cc1ccc(COc2cccc(N3CCN(Cc4nc5ccc(C(=O)O)cc5n4C[C@@H]4CCO4)[C@H]4CC43)n2)c(F)c1` (single isomer, unassigned) [Compound 42], the CLint scaled at 1 μM in data set [1] was found to be 5.01 mL/min/kg. For the same molecule, the hHep t1/2 in the data set with human hepatocytes was > 8 h. The molecule also returned an EC50 on human GLP-1R receptor of 50 to 100 nM.
For `N#Cc1ccc(COc2ccnc(N3CCN(Cc4nc5ccc(C(=O)O)cc5n4Cc4cncs4)[C@H]4C[C@H]43)n2)c(F)c1` [Compound 19, 2-((5-(4-((4-Cyano-2-fluorobenzyl)oxy)pyrimidin-2-yl)-2,5-diazabicyclo[4.1.0]heptan-2-yl)methyl)-1-(thiazol-5-ylmethyl)-1H-benzo[d]imidazole-6-carboxylic Acid], the CLint scaled at 1 μM in data set [1] was 5.01 mL/min/kg. The hHep t1/2 in the data set with human hepatocytes is > 8 h. On human GLP-1R receptor, the EC50 is > 100 nM.
Broadly, the Papp A→B is the apparent permeability from the apical to the basolateral side of a cell layer. For the molecule `CC1(c2ccc(C#N)cc2F)Oc2cccc(N3CCN(Cc4nc5ccc(C(=O)O)cc5n4Cc4cncs4)C4CC43)c2O1` (centres unmarked) [Compound 34, 2-((5-(2-(4-Cyano-2-fluorophenyl)-2-methylbenzo[d][1,3]dioxol-4-yl)-2,5-diazabicyclo[4.1.0]heptan-2-yl)methyl)-1-(thiazol-5-ylmethyl)-1H-benzo[d]imidazole-6-carboxylic Acid], the EC50 on human GLP-1R receptor was < 5 nM. Further, the efflux ratio at 120 min, 5 μM in data set [2] (pH 7.4, Caco-2, efflux ratio = Papp (B-to-A)/Papp (A-to-B), read-out: ER) was 1.82. The Papp A→B at 120 min, 5 μM in data set [2] (Caco-2, 5 μM, pH 7.4, 120 minutes) is 19.9 ×10⁻⁶ cm/s.
With `CCn1nncc1Cn1c(CN2CCN(c3cccc(OCc4ccc(C#N)cc4F)n3)C3C[C@@H]32)nc2ccc(C(=O)O)cc21` (some centres unmarked) [Compound 44, 2-((5-(6-((4-Cyano-2-fluorobenzyl)oxy)pyridin-2-yl)-2,5-diazabicyclo[4.1.0]heptan-2-yl)methyl)-1-((1-ethyl-1H-1,2,3-triazol-5-yl)methyl)-1H-benzo[d]imidazole-6-carboxylic Acid], the CLint scaled at 1 μM in data set [1] is 5.01 mL/min/kg. The hHep t1/2 with human hepatocytes was > 8 h.
